# Experimental data taken from patent US20050209299A1, “Inhibition of mixed lineage kinases and uses therefor” (University of Maryland, Baltimore, priority 2004, published 2005).
# How the values were obtained:
# [1] = tested on: ERK pathway; conditions: neuronal cells, reported (12); cited from earlier work
# [2] = target: T1, MLK3 (Homo sapiens, UniProt Q16584); experiment: MLK3 induced JNK phosphorylation in transfected cells (immunoblot); type: cell-based
# T1 construct: expressed in transfected cells; host or cells: HeLa
# T1 sequence (Q16584 whole entry): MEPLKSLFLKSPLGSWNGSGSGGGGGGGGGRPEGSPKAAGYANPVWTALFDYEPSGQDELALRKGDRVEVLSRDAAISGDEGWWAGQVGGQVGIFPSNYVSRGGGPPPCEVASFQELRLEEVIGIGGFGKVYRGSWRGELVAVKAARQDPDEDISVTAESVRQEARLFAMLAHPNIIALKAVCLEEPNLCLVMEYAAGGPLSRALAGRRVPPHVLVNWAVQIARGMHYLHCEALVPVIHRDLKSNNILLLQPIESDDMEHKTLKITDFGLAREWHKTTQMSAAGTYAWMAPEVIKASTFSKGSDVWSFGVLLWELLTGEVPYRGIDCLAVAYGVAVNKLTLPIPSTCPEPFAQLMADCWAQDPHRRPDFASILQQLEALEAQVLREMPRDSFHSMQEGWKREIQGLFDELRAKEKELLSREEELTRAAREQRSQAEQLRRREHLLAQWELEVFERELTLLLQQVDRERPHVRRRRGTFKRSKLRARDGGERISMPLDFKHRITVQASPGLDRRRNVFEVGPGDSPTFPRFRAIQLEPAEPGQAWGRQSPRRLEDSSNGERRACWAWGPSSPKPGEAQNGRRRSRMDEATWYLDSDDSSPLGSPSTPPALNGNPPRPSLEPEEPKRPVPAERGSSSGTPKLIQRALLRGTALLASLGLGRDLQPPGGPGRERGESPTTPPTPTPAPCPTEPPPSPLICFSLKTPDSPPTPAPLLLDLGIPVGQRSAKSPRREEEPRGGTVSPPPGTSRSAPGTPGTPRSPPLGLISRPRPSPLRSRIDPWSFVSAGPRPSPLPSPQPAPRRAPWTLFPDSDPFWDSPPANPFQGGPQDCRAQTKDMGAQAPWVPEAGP
# Description: (§1) HeLa, NIH 3T3, HEK293, A549, or MRC-5 cells were grown in a DMEM supplemented with 10% fetal bovine serum (FBS) and penicillin (100 U/ml) and streptomycin (100 μg/ml). Estrogen receptor (ER) negative breast cancer cells, SUM-159, were obtained from the University of Michigan Human Breast Cancer Cell Lines (SUM-Lines) and grown in DMEM+10% FBS. In some experiments, cells were transfected with cDNA (1 μg) for pEGFP (BD Biosciences/Clontech, Palo Alto, Calif.), hemagglutinin (HA)-tagged MLK3, kinase dead mutant MLK3 (MLK3 K144R), GFP-tagged MLK2 (kindly provided by Dr. Donna Dorow), Flag-tagged DLK, or HA-tagged JNK1 using Lipofectamine® (Invitrogen, Carlsbad, Calif.). Transfected cells were harvested 16-24 hours after transfection.
# (§2) For protein analysis, cells were washed twice with cold phosphate buffered saline (PBS), lysed with 300 μl of tissue lysis buffer (TLB) (20 mM Tris-base, pH 7.4, 137 mM NaCl, 2 mM EDTA, 1% Triton X-100, 25 mM β-glycerophosphate, 2 mM sodium pyrophosphate, 10% glycerol, 1 mM sodium orthovanadate, 1 mM phenylmethysulfonyl fluoride (PMSF), and 1 mM benzamidine) and centrifuged at 20,000×g to clarify lysates. Approximately 20 μg of total protein was separated by SDS-PAGE. […] Immunoreactivity was detected by enhanced chemiluminescence (ECL; Amersham, Buckinghamshire, England).
# [3] = tested on: HeLa cells; experiment: FACS analysis of DNA content (cell cycle); type: cell-based
# Description: (§3) In some experiments, cells were synchronized by double thymidine block as previously described (18-19). Briefly, cells were incubated for 16 hours with 2 mM thymidine in 10% FBS containing DMEM. The excess thymidine was washed off with Hanks Buffered Saline Solution (HBSS) and cells were released back into the cell cycle with complete medium. After 8 hours, cells were treated a second time with 2 mM thymidine in 10% FBS containing DMEM for another 16 hours to arrest cells at the G1/S-phase boundary. Synchronized cells were then washed with HBSS and released back into the cell cycle and harvested at various time points after G1/S release for analysis. Cell cycle analysis was done by fluorescence activated cell sorting (FACS) as described below.
# Synchronized cells were trypsinized, washed with PBS, fixed with 3 ml of cold (−20° C.) 70% ethanol, and stored at 4° C. overnight. Cells then were incubated with 100 μg/ml propidium iodide (Sigma) dissolved in 0.2 M Tris, pH 7.5, 20 mM EDTA, 1 mg/ml RNase A (Sigma) for 1 hour at room temperature and diluted with an equal volume of PBS. DNA content was measured by flow cytometry (FACScan Analyzer, BD Biosciences) and was analyzed using the Sync Wizard Model, ModFit LT software (BD Biosciences). […]
# [4] = tested on: Cdc2; experiment: Cdc2 kinase activity (immunoprecipitated, histone substrate) in synchronized HeLa cells; type: cell-based
# Description: as §3
# Cdc2 was immunoprecipitated from cell lysates by incubating with Cdc2 antibody (0.5 μg) for 2 hours on ice. The lysates then were incubated with protein G-sepharose with mixing at 4° C. for an additional 2 hours. The immune-complex was washed with cold kinase buffer and incubated for 30 min at 30° C. with kinase buffer containing 10 μCi γ-^32P ATP, 20 μM cold ATP, and 2.5 μg histone (Type III-SS, Sigma) as a substrate. The reactions were stopped with SDS-PAGE sample buffer and the proteins were resolved by SDS-PAGE. Incorporation of ^32P into histone was determined by phosphorimager analysis.
# [5] = tested on: HeLa cells; experiment: Mitotic index / mitotic stage assay (DAPI) in synchronized HeLa cells; type: cell-based
# Description: as §3
# Cells grown on coverslips were synchronized at the G1/S-phase boundary as described in Examples 4-5. In some cases, MLK3 was co-expressed with the pEGFP vector in order to identify transfected cells. […] At varying times after release, coverslips were fixed and cellular DNA was stained with DAPI. GFP-positive mitotic cells in prophase, prometaphase, metaphase, anaphase, or telophase were identified, counted, and expressed as a fraction of the total cells counted to determine the mitotic index. Within each experiment, 300 to 350 cells were counted for each condition and time point.
# [6] = tested on: MKK1; experiment: Constitutively active MKK1 induced ERK activation in transfected HeLa cells (ppERK immunoblot); type: cell-based; conditions: CEP-11004 500 nM
# Description: as §1, §2
# [7] = tested on: HeLa cells; experiment: Cell proliferation assay (cell counting, trypan blue); type: cell-based; conditions: CEP-11004 500 nM, up to 72 hours, cell number
# Description: (§4) Following treatments cells were counted on a hemocytometer following trypsinization and staining with trypan blue (Sigma). Greater than 95% of the cells excluded trypan blue dye. Cell proliferation also was measured using a colony formation assay. […] Following incubation for 8-14 days, cells were fixed for 10 minutes in 4% paraformaldehyde and stained with 0.2% crystal violet (in 20% methanol) for 1-2 minutes. Cells were washed several times with distilled water and colonies formed (at least 40 cells/per colony) were counted.
# [8] = tested on: NIH 3T3 cells; experiment: as above; type: cell-based; conditions: CEP-11004 500 nM, up to 72 hours, cell number
# Description: as §4
# [9] = tested on: cyclin B1; experiment: Cyclin B1 immunoblot in synchronized HeLa cells; type: cell-based
# Description: as §3
# For protein analysis, cells were washed twice with cold phosphate buffered saline (PBS), lysed with 300 μl of tissue lysis buffer (TLB) (20 mM Tris-base, pH 7.4, 137 mM NaCl, 2 mM EDTA, 1% Triton X-100, 25 mM β-glycerophosphate, 2 mM sodium pyrophosphate, 10% glycerol, 1 mM sodium orthovanadate, 1 mM phenylmethysulfonyl fluoride (PMSF), and 1 mM benzamidine) and centrifuged at 20,000×g to clarify lysates. Approximately 20 μg of total protein was separated by SDS-PAGE. Proteins were transferred to PVDF membrane (Perkin Elmer Life Sciences; Boston, Mass.), blocked for 1-2 hours with 5% nonfat dry milk in Tris-buffered saline (TBS) (50 mM Tris-base, pH 7.4, 0.15 M NaCl, and 0.1% Tween-20) and incubated with the primary antibodies in TBS containing 1% BSA solution for 1 to 16 hours. Membranes were washed several times in TBS-Tween solution and incubated with HRP conjugated anti-mouse or anti-rabbit antibodies (0.1 μg/ml). Immunoreactivity was detected by enhanced chemiluminescence (ECL; Amersham, Buckinghamshire, England).
# [10] = tested on: histone H3; experiment: Phospho-histone H3 (serine 10) immunofluorescence in synchronized HeLa cells; type: cell-based
# Description: as §3
# (§5) Cells grown on round glass coverslips in 6-centimeter plates were synchronized at the G1/S-phase boundary using excess thymidine as described in Example 4. At the indicated time after release back into the cell cycle, coverslips were fixed with 4% paraformaldehyde for 8 minutes and permeabilized with 0.1% Triton X-100 in PBS for 2 minutes. Cell staining patterns were confirmed in cells that were fixed and permeabilized with cold methanol for 10 minutes. Cells were stained with antibodies against MLK3, α-tubulin, cyclin B1, phospho-specific histone H3, or p62 nucleoporin followed by incubation with fluorescein or Texas Red conjugated secondary antibodies and counterstaining for cellular DNA with 4′,6-diamidino-2-phenylindole (DAPI, 0.2 μg/ml in PBS). Cells were identified using Nikon E800 Epi-fluorescence microscope (Image Systems, Columbia, Md.) and captured with a Hamamatsu CCD camera. Cell images were processed using IPlab software (Scanalytics, Fairfax, Va.).
# [11] = tested on: HEK293 cells; experiment: FACS analysis of DNA content (cell cycle); type: cell-based; conditions: treated for 20 hours; indicative of arrest in G2 or M-phase
# Description: Synchronized cells were trypsinized, washed with PBS, fixed with 3 ml of cold (−20° C.) 70% ethanol, and stored at 4° C. overnight. Cells then were incubated with 100 μg/ml propidium iodide (Sigma) dissolved in 0.2 M Tris, pH 7.5, 20 mM EDTA, 1 mg/ml RNase A (Sigma) for 1 hour at room temperature and diluted with an equal volume of PBS. DNA content was measured by flow cytometry (FACScan Analyzer, BD Biosciences) and was analyzed using the Sync Wizard Model, ModFit LT software (BD Biosciences). To determine the percentage of G1, S and G2/M-phase cells, the settings for 2N and 4N peaks were defined within each experiment from the G1/S arrested cells and applied to all samples within a given experiment.
# [12] = target: T1, MLK3; experiment: MLK3 kinase assay (immunoprecipitated from treated transfected cells, MBP substrate); type: cell-based
# Description: Immunoprecipitated MLK3 was incubated for 45 min at 30° C. with kinase buffer containing 10 μCi γ-^32P ATP, 20 μM cold ATP, and 0.5 μg myelin basic protein (MBP) as a substrate. The reaction was quenched with 2×SDS sample buffer, separated by SDS-PAGE and transferred to PVDF membranes (Perkin Elmer, Boston, Mass.). Radioactive phosphate incorporation into MBP and MLK3 were analyzed by phosphorimager (Amersham Biosciences/Molecular Dynamics) and immunoblotting, respectively.
# [13] = target: T1, MLK3; conditions: reference 11; cited from earlier work
# [14] = tested on: HeLa cells; experiment: Mitotic spindle immunostaining (α/γ-tubulin, DAPI) in synchronized HeLa cells; type: cell-based
# Description: as §3, §5
# [15] = tested on: A549 airway epithelia carcinoma cell; experiment: Colony formation assay; type: cell-based; conditions: varying doses, 14 days, crystal violet
# Description: as §4
# [16] = target: T1, MLK3; experiment: MLK3-induced ERK activation in transfected HeLa cells (ppERK immunoblot); type: cell-based; conditions: CEP-11004 500 nM
# Description: as §1, §2
# [17] = 11 and 13 hours after G1/S-phase release, vs untreated
# [18] = 400 nM, added 5 hours after release
# [19] = treated at end of S-phase for 4 hours
compound,measurement,setting,value
"CCSCc1ccc2c(c1)c1c3c(c4c5cc(CSCC)ccc5n5c4c1n2[C@H]1C[C@](O)(C(=O)OC)[C@]5(C)O1)CNC3=O (relative stereo) [CEP-1347, 3,9-bis[(ethylthio)methyl]-(8R*,9S*,11-S*)-(−)-9-hydroxy-9-methoxycarbonyl-8-methyl 2,3,9,10-tetrahydro-8,11-epoxy-1H,8H, 11H-2,7b,11a-triazadibenzo(a,g)cycloocta(cde)trinden-1-one]",effect on the ERK pathway,[1],activate the ERK pathway
"3,9-bis-[(isopropylthio)methyl]-(8R*,9S*, 11S*)-(−)-9-hydroxy-9-methoxycarbonyl-8-methyl-2,3,9,10-tetrahydro-8,11-epoxy-1H,8H,11H-2,7b,11a-triazadibenzo(a,g)cycloocta(cde)trinden-1-one [CEP-11004]",inhibition of MLK3 induced JNK1 phosphorylation,"[2]; 100 nM CEP-11004, HA-MLK3 + HA-JNK1 co-expressed",80%
same,MLK3 induced JNK phosphorylation,"[2]; CEP-11004 500 nM, 4 hours, transfected cells",inhibited MLK3
same,cell cycle progression in synchronized HeLa cells (4N DNA),"[3]; added 5 hours after G1/S release, 11 and 13 hours after release",arrest in G2 or M-phase
same,"DNA content by FACS, HeLa cells","[3]; treated for 20 hours, indicative of arrest in G2 or M-phase",accumulated 4N DNA
same,Cdc2 kinase activity in synchronized HeLa cells,[4]; [17],elevated Cdc2 kinase activity
same,Cdc2 activity in mock transfected vs MLK3 transfected cells,[4]; 100 or 200 nM CEP-11004,higher Cdc2 activity
same,cells in metaphase or anaphase/telophase at 9 hours after G1/S,[5]; [18],not evident
same,mitotic stage at 11 hours after G1/S release,[5]; [18],primarily accumulated in pro-metaphase
same,pro-metaphase cells at 9 hours after G1/S,"[5]; 400 nM, added 5 hours after release, vs untreated",accumulation of pro-metaphase cells
same,concentrations at which mitotic arrest occurs,"[5]; as low as, FIGS. 6A-6C",100 to 200 nM
same,percentage of pro-metaphase cells vs concentration,[5]; various concentrations for 8 hours (13 hours after G1/S release),dose-dependent increase
same,activity of MKK1 (non-MLK related protein kinase),[6],does not affect
same,HeLa cell proliferation,[7],inhibited
same,proliferation of NIH 3T3 cells,[8],unaffected
same,cyclin B1 expression in synchronized HeLa cells,[9]; [17],sustained cyclin B1 expression
same,cyclin B1 levels in mock transfected cells,"[9]; 100 or 200 nM CEP-11004, 8 hours",elevated
same,cyclin B1 levels in MLK3 transfected cells,"[9]; 100 or 200 nM, vs mock transfected",lower cyclin B1 levels
same,nuclear pH3 staining during prophase,"[10]; added 5 hours after G1/S release, additional 4 hours",did not contain nuclear pH3 staining
same,pH3 staining after NEB in pro-metaphase,[10]; both untreated and treated cells,readily apparent
same,lowest dose with inhibited pH3 staining in early mitotic cells,[10]; data not shown,200 nM
same,pH3 staining in early mitosis before NEB,[10]; p62 nucleoporin co-staining,not observed
same,"DNA content by FACS, HEK293 cells",[11],accumulated 4N DNA
same,expressed MLK3 activity (MBP phosphorylation),"[12]; HA-MLK3 in HeLa cells, CEP-11004 500 nM, 4 hours",significantly inhibited
same,MLK3 activity during G2 and M-phase transitions,[12]; data not shown,blocked
same,specificity towards MLK3 as compared to MLK2,[13],approximately 3 fold
same,chromosome organization (DAPI),[14]; [19],highly disorganized
same,microtubule organization (α-tubulin) in mitotic cells,[14]; [19],significant disruption
same,mitotic cells with aberrant microtubule organization,[14]; [19],Greater than 60%
same,number of spindle poles (γ-tubulin),[14]; [19],no effect
same,microtubules of interphase cells,"[14]; treated for 4 hours, data not shown",no apparent effects
same,A549 colony formation,[15],dose dependent inhibition
same,MLK3-induced ERK activation,[16],inhibited
